Test results published in ChEMBL document CHEMBL1157005, “A new structural class of S-adenosylhomocysteine hydrolase inhibitors” (Bioorg Med Chem, 2009).

Assays:
[1] = biological target: T1, Adenosylhomocysteinase (Homo sapiens, UniProt P23526); assay: Inhibition of S-adenosyl-L-homocysteine hydrolase after 10 mins by scintillation counting
Target sequence in this assay (P23526 whole entry): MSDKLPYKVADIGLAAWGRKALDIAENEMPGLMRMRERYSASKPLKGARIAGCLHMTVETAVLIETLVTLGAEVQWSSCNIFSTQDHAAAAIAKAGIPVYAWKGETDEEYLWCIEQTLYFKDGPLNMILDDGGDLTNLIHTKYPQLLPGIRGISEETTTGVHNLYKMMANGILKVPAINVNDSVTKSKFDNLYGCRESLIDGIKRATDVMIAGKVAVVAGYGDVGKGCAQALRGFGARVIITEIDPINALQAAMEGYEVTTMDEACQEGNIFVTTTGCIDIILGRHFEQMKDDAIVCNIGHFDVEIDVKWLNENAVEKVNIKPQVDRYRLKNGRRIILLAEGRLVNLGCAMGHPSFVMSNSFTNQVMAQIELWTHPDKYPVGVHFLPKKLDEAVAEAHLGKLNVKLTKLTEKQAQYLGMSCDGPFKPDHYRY

[2] = biological target: Adenosylhomocysteinase (Plasmodium falciparum 3D7, UniProt P50250); assay: Inhibition of Plasmodium falciparum S-adenosyl-homocysteine hydrolase
Sequence of Adenosylhomocysteinase (Plasmodium falciparum 3D7, UniProt P50250) (P50250 whole entry): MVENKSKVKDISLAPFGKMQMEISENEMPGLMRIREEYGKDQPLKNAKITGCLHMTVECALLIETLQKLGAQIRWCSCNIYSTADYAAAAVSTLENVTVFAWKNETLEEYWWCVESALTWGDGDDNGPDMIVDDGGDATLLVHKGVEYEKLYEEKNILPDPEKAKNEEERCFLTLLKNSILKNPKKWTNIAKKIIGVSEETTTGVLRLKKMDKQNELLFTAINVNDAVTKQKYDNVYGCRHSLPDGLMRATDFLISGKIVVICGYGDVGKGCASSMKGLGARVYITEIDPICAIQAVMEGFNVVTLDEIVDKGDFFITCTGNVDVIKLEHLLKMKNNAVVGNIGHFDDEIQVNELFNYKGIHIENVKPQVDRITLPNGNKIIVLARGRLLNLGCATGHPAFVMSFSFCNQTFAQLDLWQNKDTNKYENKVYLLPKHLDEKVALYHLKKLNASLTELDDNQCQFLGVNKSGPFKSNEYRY

[3] = biological target: T1, Adenosylhomocysteinase; assay: Inhibition of S-adenosyl-L-homocysteine hydrolase at 50 uM after 10 mins by scintillation counting
Target sequence in this assay (P23526 2-432 limits assumed): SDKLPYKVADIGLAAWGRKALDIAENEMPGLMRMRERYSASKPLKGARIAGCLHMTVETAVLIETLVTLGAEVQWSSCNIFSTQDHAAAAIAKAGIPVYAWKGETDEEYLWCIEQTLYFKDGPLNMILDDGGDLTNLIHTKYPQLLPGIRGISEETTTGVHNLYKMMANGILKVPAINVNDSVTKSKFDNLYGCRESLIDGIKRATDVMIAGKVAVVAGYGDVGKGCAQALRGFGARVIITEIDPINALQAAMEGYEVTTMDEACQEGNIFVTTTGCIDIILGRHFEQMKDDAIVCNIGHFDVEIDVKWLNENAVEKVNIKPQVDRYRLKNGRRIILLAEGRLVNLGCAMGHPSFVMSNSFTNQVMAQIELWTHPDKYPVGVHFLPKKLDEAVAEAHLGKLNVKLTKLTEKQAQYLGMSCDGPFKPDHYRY

[4] = biological target: T1, Adenosylhomocysteinase; assay: Inhibition of S-adenosyl-L-homocysteine hydrolase at 2 uM after 10 mins by scintillation counting
Target sequence in this assay (P23526 2-432 limits assumed): as above

[5] = biological target: T2, Adenosylhomocysteinase (Rattus norvegicus, UniProt P10760); assay: Inhibition of S-adenosyl-L-homocysteine hydrolase in intact rat hepatocytes; format: cell-based, Hepatocyte
T2 sequence (P10760 whole entry): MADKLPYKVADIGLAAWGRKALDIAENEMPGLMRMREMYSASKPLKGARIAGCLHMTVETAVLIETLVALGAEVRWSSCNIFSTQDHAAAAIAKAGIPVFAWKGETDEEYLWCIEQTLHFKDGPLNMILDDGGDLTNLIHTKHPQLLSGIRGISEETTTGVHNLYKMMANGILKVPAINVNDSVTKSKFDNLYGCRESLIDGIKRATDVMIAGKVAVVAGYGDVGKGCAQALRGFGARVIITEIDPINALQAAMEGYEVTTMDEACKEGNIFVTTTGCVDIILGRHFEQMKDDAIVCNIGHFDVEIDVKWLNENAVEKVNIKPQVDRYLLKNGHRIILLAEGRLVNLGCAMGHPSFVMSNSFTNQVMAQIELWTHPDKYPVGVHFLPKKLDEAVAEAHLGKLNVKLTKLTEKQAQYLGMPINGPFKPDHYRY

SMILES: Nc1ncnc2c1ncn2Cc1cc(OCC2CCCCC2)cc(O)c1O
- IC50 [1]: 400 nM

SMILES: C=C1CCC[C@H]2[C@](C)(CC3=C(O)C(=O)C=C(OC)C3=O)[C@@H](C)CC[C@]12C [ILIMAQUINONE]
- IC50 [1]: 40000 nM

SMILES: C=C1[C@H](OC(=O)CCCCCNC(=O)OC(C)(C)C)CC[C@H]2[C@](C)(CC3=C(Cl)C(=O)C=C(OC)C3=O)[C@@H](C)CC[C@]12C
- IC50 [1]: > 250000 nM

SMILES: Nc1ncnc2c1ncn2[C@@H]1C[C@H](O)[C@@H](O)[C@H]1O [NORARISTEROMYCIN]
- IC50 [2]: 1100 nM

SMILES: COC1=CC(=O)C(O)=C(C[C@@]2(C)[C@@H]3CCC[C@H](COC(=O)CCCCCNC(=O)OC(C)(C)C)[C@@]3(C)CC[C@@H]2C)C1=O
- IC50 [1]: < 20000 nM

SMILES: Nc1ncnc2c1ncn2Cc1cc(O)c(O)c(OCC2CCCCC2)c1
- inhibition [3]: 74%
- inhibition [4]: 17%

SMILES: Nc1ncnc2c1ncn2C[C@@H](O)[C@@H](O)C(=O)O [ERITADENINE]
- IC50 [5]: 30 nM

SMILES: CCCCCOc1cc(Cn2cnc3c(N)ncnc32)cc(O)c1O
- inhibition [3]: 47%
- inhibition [4]: 12%

SMILES: Nc1ncnc2c1ncn2Cc1cc(O)c(O)c(OCc2ccccc2)c1
- inhibition [3]: 70%
- inhibition [4]: 12%
